Experimental data reported in publication PMC5415745, “Drug-transporter mediated interactions between anthelminthic and antiretroviral drugs across the Caco-2 cell monolayers” (BMC Pharmacology & Toxicology, 2017).
Values joined by “and” are separate entries in the source; they are usually repeats but may differ in a detail not shown here. Identical values can stand only once.

Legend:
P-gp = settings: CEM parental and CEMVBL cells; cited from earlier work
in vitro = settings: human, Mean
Description: (§1) The monolayers used were of between passage 20 and 65 after 15 days of growth. Each experiment was performed in duplicate using two six well-transwell culture plates. The cells were trypsinized as described earlier, and after centrifugation the pellet re-suspended in fresh DMEM (+15%), and the cells counted using a cell counter. A volume of DMEM was added enough to give a cell count of 2 × 10^6 cells per ml, and cells were seeded on the transwell culture plates at a density of 2 × 10^4 cells/cm^2 (~ 100,000 cells per well, since insert membrane growth area = 4.67 cm^2). The plates were then incubated at 37°C and 10% CO2 in a humidified chamber and the media changed every 2-3 days, by aspirating using a suction pump and replacing with an equal volume of DMEM. Transport experiments were conducted 15 to 20 days after seeding. The TEER across the cell monolayers was monitored using a Millicell-ERS in order to assess cell monolayer integrity and the monolayers considered appropriate for the experiment when the TEER values were typically above 500 cm^2 [49, 70].
(§2) Prior to transport studies, each monolayer was washed and equilibrated with the transport medium (DMEM without FBS). The medium was removed from all AP and BL compartments of the transwells and replaced with 2 ml of the transport medium (DMEM alone), to both compartments and equilibrated for 1 h (37°C, 10% CO2 incubator), after which the TEER was re-assessed and labeled. The medium was then removed from both compartments and replaced with an equal volume of pre-warmed medium containing the compound of interest at the appropriate concentration. For the AP → BL transport, 2 ml of medium containing the desired drug was placed in the AP chamber and 2 ml of the medium alone in the BL chamber, whereas 2 ml of medium containing the drug was placed in the BL and 2 ml of medium on the AP chamber for the BL → AP transport [71]. The effect of the second drug was then assessed by adding the medium containing the original drug and the drug under study to the AP side for AP → BL transport with the medium containing the original drug alone in the BL chamber, and vice-versa for the BL → AP transport. Transport in each direction was done in triplicate. The transwell plates were then incubated (37°C, 10% CO2 incubator), and 100μl of the samples from the AP and BL compartments were taken at 60, 120, 180 and 240 min and quantified either by HPLC method described earlier [45], or by the use of a liquid scintillating counter depending on the drug under study. The HPLC method involved liquid - liquid extraction followed by ultra-high performance liquid chromatography using a Hypurity C18 column and ultraviolet detection set at a wavelength of 215 nm. The mobile phase consisted of ammonium formate, acetonitrile and methanol (57:38:5 v/v). Separation was facilitated via isocratic elution at a flow rate of 1.5 ml/min. For HPLC assays, the concentration used for each drug was 20μg/ml. The concentrations that offered the best detection were selected for radiolabeled assay. […] The integrity of the CCM during the experiment was monitored by measuring the TEER at the beginning (0 min) and the end of the experiment (240min).
(§3) The results were expressed as apparent permeability coefficient (Papp, unit: cms^-1), the amount of compound transported per second. Papp values were calculated for both AP to BL (PappAtoB), and BL to AP (PappBtoA) movement of the compound. Papp was calculated using the following equation [52, 72]: • Papp (cm/s) = (dQ/dt) x (1/(ACO) • dQ/dt = Steady-state flux (dpm s^-1 or μmol s^-1) • A = Surface area of the filter (cm^2) • CO = Initial concentration in the donor chamber (dpm litre ^-1 or μM)
(§4) The quotient of secretory permeability and absorptive permeability (PappBL-AP/PappAP-BL) constitutes the efflux ratio, while the reverse (PappAP-BL/PappBL-AP) is the uptake ratio [71].

Caco-2 cell monolayers = assay: Bidirectional (AP→BL, BL→AP) drug transport across Caco-2 cell monolayers in transwells: cumulative transport, Papp, efflux ratio; HPLC or radiolabeled assay; settings: for Basal to apical transport (cumulative, receiver): individual samples 1-3; for PappAB / PappBA: individual samples; for Apical to basal transport / Basal to apical transport: samples 1-3
Description: as §1, §2, §3, §4

[1] = PZQ alone (EFV experiment), 60 min
[2] = PZQ alone (EFV experiment), 120 min, mean
[3] = PZQ alone (EFV experiment), 120 min
[4] = PZQ alone (EFV experiment), 180 min, mean
[5] = PZQ alone (EFV experiment), 180 min
[6] = PZQ alone (EFV experiment), 240 min, mean
[7] = PZQ alone (EFV experiment), 240 min
[8] = PZQ alone (NVP experiment), 60 min, mean
[9] = PZQ alone (NVP experiment), 60 min
[10] = PZQ alone (NVP experiment), 120 min, mean
[11] = PZQ alone (NVP experiment), 120 min
[12] = PZQ alone (NVP experiment), 180 min, mean
[13] = PZQ alone (NVP experiment), 180 min
[14] = PZQ alone (NVP experiment), 240 min, mean
[15] = PZQ alone (NVP experiment), 240 min
[16] = PZQ alone (SQV experiment), 60 min, mean
[17] = PZQ alone (SQV experiment), 60 min
[18] = PZQ alone (SQV experiment), 120 min, mean
[19] = PZQ alone (SQV experiment), 120 min
[20] = PZQ alone (SQV experiment), 180 min, mean
[21] = PZQ alone (SQV experiment), 180 min
[22] = PZQ alone (SQV experiment), 240 min, mean
[23] = PZQ alone (SQV experiment), 240 min
[24] = PZQ alone (SQV experiment), after 60min
[25] = PZQ alone (SQV experiment), after 60min, mean
[26] = labelled drug is the interacting drug

For `O=C(C1CCCCC1)N1CC(=O)N2CCc3ccccc3C2C1` (centres unmarked) [PZQ, praziquantel], the “P-gp substrate / inhibitor status” value (P-gp) is listed as “neither a substrate nor an inhibitor of P-gp”, the Papp A→B at 7200 sec (in vitro; Caco-2, PappAB) is listed as 63.8 ×10⁻⁶ cm/s and the Papp A→B at 10800 sec (in vitro; Caco-2, PappAB) is listed as 57.7 ×10⁻⁶ cm/s. For the same molecule, the Papp A→B at 14400 sec (in vitro; Caco-2, PappAB) was 53.9 ×10⁻⁶ cm/s, the Papp B→A at 7200 sec (in vitro; Caco-2, PappBA) was 57.2 ×10⁻⁶ cm/s and the Papp B→A at 10800 sec (in vitro; Caco-2, PappBA) was 47.9 ×10⁻⁶ cm/s. The Papp B→A at 14400 sec (in vitro; Caco-2, PappBA) was 49.6 ×10⁻⁶ cm/s, the “Basal to apical transport (cumulative, receiver)” value (Caco-2 cell monolayers; 60 min) was 16.40 pmol and 16.26 pmol and 17.14 pmol and the “Apical to basal transport (cumulative, receiver), Mean” value (Caco-2 cell monolayers; 60 min, mean n=3) was 15.06 pmol. For the same molecule, the “Basal to apical transport (cumulative, receiver), Mean” value (Caco-2 cell monolayers; 60 min, mean n=3) was 16.60 pmol, the PappAB (Caco-2 cell monolayers; 3600 sec) was 8.99e-05 cm/s and 6.25e-05 cm/s and 7.68e-05 cm/s and the PappBA (Caco-2 cell monolayers; 3600 sec) was 8.46e-05 cm/s and 7.75e-05 cm/s and 9.54e-05 cm/s. For the same molecule, the “PappAB Mean” value (Caco-2 cell monolayers; 3600 sec, mean n=3) was 7.64e-05 cm/s, the “PappBA Mean” value (Caco-2 cell monolayers; 3600 sec, mean n=3) was 8.58e-05 cm/s and the “Basal to apical transport (cumulative, receiver)” value (Caco-2 cell monolayers; 120 min) was 20.68 pmol and 19.96 pmol and 21.78 pmol. For the same molecule, the “Apical to basal transport (cumulative, receiver), Mean” value (Caco-2 cell monolayers; 120 min, mean n=3) was 22.74 pmol, the “Basal to apical transport (cumulative, receiver), Mean” value (Caco-2 cell monolayers; 120 min, mean n=3) was 20.81 pmol and the PappAB (Caco-2 cell monolayers; 7200 sec) was 6.55e-05 cm/s and 6.57e-05 cm/s and 6.02e-05 cm/s. For the same molecule, the PappBA (Caco-2 cell monolayers; 7200 sec) was 5.62e-05 cm/s and 5.79e-05 cm/s and 5.75e-05 cm/s, the “Basal to apical transport (cumulative, receiver)” value (Caco-2 cell monolayers; 180 min) was 26.18 pmol and 23.22 pmol and the “Apical to basal transport (cumulative, receiver), Mean” value (Caco-2 cell monolayers; 180 min, mean n=3) was 27.30 pmol. For the same molecule, the “Basal to apical transport (cumulative, receiver), Mean” value (Caco-2 cell monolayers; 180 min, mean n=3) was 23.94 pmol, the PappAB (Caco-2 cell monolayers; 10800 sec) was 5.83e-05 cm/s and 5.16e-05 cm/s and 6.32e-05 cm/s and the PappBA (Caco-2 cell monolayers; 10800 sec) was 5.66e-05 cm/s and 4.11e-05 cm/s and 4.6e-05 cm/s. The “Basal to apical transport (cumulative, receiver)” value (Caco-2 cell monolayers; 240 min) was 26.24 pmol and 28.48 pmol and 32.82 pmol, the “Apical to basal transport (cumulative, receiver), Mean” value (Caco-2 cell monolayers; 240 min, mean n=3) was 32.95 pmol and the “Basal to apical transport (cumulative, receiver), Mean” value (Caco-2 cell monolayers; 240 min, mean n=3) was 29.18 pmol. The PappAB (Caco-2 cell monolayers; 14400 sec) was 5.44e-05 cm/s and 5.2e-05 cm/s and 5.55e-05 cm/s, the PappBA (Caco-2 cell monolayers; 14400 sec) was 5.01e-05 cm/s and 4.33e-05 cm/s and 5.54e-05 cm/s and the “Basal to apical transport Mean” value (Caco-2 cell monolayers; PZQ alone (EFV experiment), 60 min, mean) was 26.40 pmol. For the same molecule, the “Apical to basal transport” value (Caco-2 cell monolayers; [1]) was 33.50 pmol and 22.28 pmol and 39.18 pmol, the “Basal to apical transport” value (Caco-2 cell monolayers; [1]) was 25.94 pmol and 27.98 pmol and 25.28 pmol and the “Apical to basal transport Mean” value (Caco-2 cell monolayers; [2]) was 37.71 pmol. For the same molecule, the “Basal to apical transport Mean” value (Caco-2 cell monolayers; [2]) was 46.61 pmol, the “Apical to basal transport” value (Caco-2 cell monolayers; [3]) was 45.74 pmol and 32.50 pmol and 34.88 pmol and the “Basal to apical transport” value (Caco-2 cell monolayers; [3]) was 49.34 pmol and 35.84 pmol and 54.66 pmol. For the same molecule, the “Apical to basal transport Mean” value (Caco-2 cell monolayers; [4]) was 54.47 pmol, the “Basal to apical transport Mean” value (Caco-2 cell monolayers; [4]) was 58.63 pmol and the “Apical to basal transport” value (Caco-2 cell monolayers; [5]) was 46.84 pmol and 53.00 pmol and 63.58 pmol. The “Basal to apical transport” value (Caco-2 cell monolayers; [5]) was 53.14 pmol and 51.00 pmol and 71.74 pmol, the “Apical to basal transport Mean” value (Caco-2 cell monolayers; [6]) was 71.45 pmol and the “Basal to apical transport Mean” value (Caco-2 cell monolayers; [6]) was 67.31 pmol. For the same molecule, the “Apical to basal transport” value (Caco-2 cell monolayers; [7]) was 50.62 pmol and 68.96 pmol and 94.76 pmol, the “Basal to apical transport” value (Caco-2 cell monolayers; [7]) was 74.78 pmol and 75.20 pmol and the “Apical to basal transport Mean” value (Caco-2 cell monolayers; [8]) was 23.43 pmol. The “Basal to apical transport Mean” value (Caco-2 cell monolayers; [8]) was 25.07 pmol, the “Apical to basal transport” value (Caco-2 cell monolayers; [9]) was 22.50 pmol and 22.28 pmol and 25.50 pmol and the “Basal to apical transport” value (Caco-2 cell monolayers; [9]) was 23.94 pmol and 25.98 pmol and 25.28 pmol. For the same molecule, the “Apical to basal transport Mean” value (Caco-2 cell monolayers; [10]) was 39.93 pmol, the “Basal to apical transport Mean” value (Caco-2 cell monolayers; [10]) was 49.95 pmol and the “Apical to basal transport” value (Caco-2 cell monolayers; [11]) was 34.88 pmol and 39.18 pmol and 45.74 pmol. For the same molecule, the “Basal to apical transport” value (Caco-2 cell monolayers; [11]) was 49.34 pmol and 45.84 pmol and 54.66 pmol, the “Apical to basal transport Mean” value (Caco-2 cell monolayers; [12]) was 50.15 pmol and the “Basal to apical transport Mean” value (Caco-2 cell monolayers; [12]) was 54.69 pmol. For the same molecule, the “Apical to basal transport” value (Caco-2 cell monolayers; [13]) was 46.84 pmol and 53.00 pmol and 50.62 pmol, the “Basal to apical transport” value (Caco-2 cell monolayers; [13]) was 53.14 pmol and 59.00 pmol and the “Apical to basal transport Mean” value (Caco-2 cell monolayers; [14]) was 69.10 pmol. The “Basal to apical transport Mean” value (Caco-2 cell monolayers; [14]) was 73.24 pmol, the “Apical to basal transport” value (Caco-2 cell monolayers; [15]) was 63.58 pmol and 68.96 pmol and 74.76 pmol and the “Basal to apical transport” value (Caco-2 cell monolayers; [15]) was 65.74 pmol and 78.78 pmol and 75.20 pmol. The “Apical to basal transport Mean” value (Caco-2 cell monolayers; [16]) was 15.06 pmol, the “Basal to apical transport Mean” value (Caco-2 cell monolayers; [16]) was 16.60 pmol and the “Apical to basal transport” value (Caco-2 cell monolayers; [17]) was 16.68 pmol and 13.02 pmol and 15.48 pmol. For the same molecule, the “Basal to apical transport” value (Caco-2 cell monolayers; [17]) was 16.40 pmol and 16.26 pmol and 17.14 pmol, the “Apical to basal transport Mean” value (Caco-2 cell monolayers; [18]) was 22.74 pmol and the “Basal to apical transport Mean” value (Caco-2 cell monolayers; [18]) was 20.81 pmol. For the same molecule, the “Apical to basal transport” value (Caco-2 cell monolayers; [19]) was 22.40 pmol and 22.80 pmol and 23.02 pmol, the “Basal to apical transport” value (Caco-2 cell monolayers; [19]) was 19.96 pmol and 21.78 pmol and 20.68 pmol and the “Apical to basal transport Mean” value (Caco-2 cell monolayers; [20]) was 27.30 pmol. The “Basal to apical transport Mean” value (Caco-2 cell monolayers; [20]) was 23.94 pmol, the “Apical to basal transport” value (Caco-2 cell monolayers; [21]) was 28.02 pmol and the “Basal to apical transport” value (Caco-2 cell monolayers; [21]) was 26.18 pmol and 23.22 pmol. The “Apical to basal transport Mean” value (Caco-2 cell monolayers; [22]) was 32.95 pmol, the “Basal to apical transport Mean” value (Caco-2 cell monolayers; [22]) was 29.18 pmol and the “Apical to basal transport” value (Caco-2 cell monolayers; [23]) was 30.94 pmol and 32.48 pmol and 35.44 pmol. For the same molecule, the “Basal to apical transport” value (Caco-2 cell monolayers; [23]) was 26.24 pmol and 28.48 pmol and 32.82 pmol, the PappAB (Caco-2 cell monolayers; [24]) was 8.99e-06 cm/s and 6.25e-06 cm/s and 7.68e-06 cm/s and the PappBA (Caco-2 cell monolayers; [24]) was 8.46e-06 cm/s and 7.75e-06 cm/s and 9.54e-06 cm/s. For the same molecule, the PappAB Mean (Caco-2 cell monolayers; [25]) was 7.64e-06 cm/s, the PappBA Mean (Caco-2 cell monolayers; [25]) was 8.58e-06 cm/s and the PappAB (Caco-2 cell monolayers; PZQ alone, MOESM4) was 8.99e-05 cm/s and 6.25e-05 cm/s and 7.68e-05 cm/s. The PappBA (Caco-2 cell monolayers; PZQ alone, MOESM4) was 8.46e-05 cm/s and 7.75e-05 cm/s and 9.54e-05 cm/s, the “ER Mean” value (Caco-2 cell monolayers; PZQ alone, mean, MOESM4) was 1.14 and the “PappAB Mean (x10^6)” value (Caco-2 cell monolayers; PZQ alone, mean, MOESM4) was 7.64 x10^6 cm/s. For the same molecule, the “Effect on the (efflux) transport of SQV” value (Caco-2 cell monolayers; [26]) was “did not alter” and the “Effect on the transport of ARVs” value (Caco-2 cell monolayers; [26]) was “did not appear to significantly influence”.
